{"source": "patent US8969331B2", "about": "“Treatment of skin and mucosal superficial wounds using adrenergic receptor agonists” (priority 2008, dated 2015)", "tested_on": "small cuts and/or abrasions", "assay": "topical application of epinephrine compositions to small cuts and/or abrasions", "format": "in vivo", "conditions": "compositions containing from about 0.001 mg/ml to about 2.5 mg/ml, applied topically", "key": {"[1]": {"conditions": "compared with wounds untreated or treated with conventional methods"}}}
{"compound": "CNC[C@H](O)c1ccc(O)c(O)c1", "note": "[epinephrine]", "values": [{"measurement": "scab formation on treated skin areas", "setting": "assessed visually", "value": "no scabs were formed visually"}, {"measurement": "control of bleeding", "setting": "[1]", "value": "faster control of bleeding"}, {"measurement": "healing of small cuts and/or abrasions", "setting": "[1]", "value": "promoted healing of small cuts and/or abrasions"}]}
